Measurements as given in patent publication US20090264415A2 (priority 2004, published 2009).
Like-named read-outs stand apart in the source and are kept apart here.

How the values were obtained:
[1] = test system: peripheral blood mononuclear cells (PBMC) stimulated with allogeneic PBMC or EBV-transformed human B cells (RPMI1788); assay: Mixed lymphocyte reaction (MLR) assay; assay type: cell-based
Summary of the method: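 Compounds, held as 10 mM DMSO stocks and diluted in culture medium, were added to PBMC stimulated by 30 Gy-irradiated allogeneic PBMC or RPMI1788 cells. Proliferation was read as [3H]-thymidine uptake (1 μCi, final 16 h) after 5 days at 37° C. Inhibition was derived from cpm.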

[2] = test system: production of human TNF-α by PBMC in response to LPS; assay: TNF-α assay (LPS-stimulated PBMC, sandwich ELISA); assay type: cell-based; details: LPS 1 μg/ml, 72 hours, read-out: TNF α
Experimental: Peripheral blood mononuclear cells (herein referred as PBMC), in response to stimulation by lipopolysaccharide (hereinafter LPS), a gram-negative bacterial endotoxin, produce various […], in particular human TNF-α. Inhibition of the activation of PBMC can therefore be measured by the level of suppression of the production of TNF-α by PBMC in response to stimulation by LPS. Inhibition measurement was performed as follows: PBMC were isolated from heparinized peripheral blood by density gradient centrifugation over Lymphoprep (commercially available from Nycomed, Norway). LPS was then added to the PMBC suspension in complete medium (10^6 cells/ml) at a final concentration of 1 μg/ml. The pteridine derivative to be tested was added at different concentrations (0.1 μM, 1 μM and 10 μM) and the cells were incubated at 37° C. for 72 hours in 5% CO2. The supernatants were collected, then TNF-α concentrations were measured with respectively an anti-TNF-α antibody in a sandwich ELISA (Duo Set ELISA human TNFα, commercially available from R&D Systems, United Kingdom). The colorimetric reading of the ELISA was measured by a Multiskan RC plate reader (commercially available from ThermoLabsystems, Finland) at 450 nm (reference wavelength: 690 nm). Data analysis was performed with Ascent software 2.6. (also from ThermoLabsystems, Finland): a standard curve (recombinant human TNFα) was drawn and the amount (pg/ml) of each sample on the standard curve was determined. The % suppression of human TNFα production by the pyrido[3,2-d]pyrimidine derivatives of the invention was calculated using the formula: [formula]

[3] = Homo sapiens, RPMI-1788, 50% suppression of the MLR, [3H]-thymidine incorporation, read-out: MLR
[4] = 50% suppression of the MLR, [3H]-thymidine incorporation, read-out: MLR
[5] = Homo sapiens, RPMI-1788, MLR assay of example 319, read-out: MLR IC50

Compound	IC50 [1, 3] [nM]	IC50 ([2]; Homo sapiens, PBMC) [nM]	IC50 [1, 5] [nM]	other results
COc1ccc(-c2ccc3nc(N)nc(NC4CCCN(C(=O)OC(C)(C)C)C4)c3n2)cc1OC (stereo not shown) [Example 257, 2-amino-4-[(1-Boc-piperidin-3-yl)amino]-6-(3,4-dimethoxyphenyl)-pyrido[3,2-d]pyrimidine]	300	600		
Nc1nc(N2CCOCC2)c2nc(-c3ccc4c(c3)OCCO4)ccc2n1 [Example 165, 2-amino-4-(morpholino)-6-(1,4-benzodioxane-phenyl)pyrido[3,2-d]pyrimidine]				IC50 [1, 4]: 600 nM; IC50 [2]: 900 nM
COc1ccc(-c2ccc3nc(N)nc(SC)c3n2)cc1OC [Example 223, 2-amino-4-thiomethyl-6-(3,4-dimethoxyphenyl)-pyrido[3,2-d]pyrimidine]				IC50 [1, 4]: 900 nM; IC50 [2]: 800 nM
COc1ccc(-c2ccc3nc(N)nc(NCCNC(=O)COc4ccc(Cl)cc4)c3n2)cc1OC [Example 265]	300	3900		
Nc1nc(N2CCOCC2)c2nc(-c3ccc4[nH]ccc4c3)ccc2n1 [Example 237, 2-amino-4-morpholino-6-(5-indolyl)-pyrido[3,2-d]pyrimidine]	800	2600		
COc1ccc(-c2ccc3nc(N(C)C)nc(N4CCN(C(=O)Nc5cccc(C)c5)CC4)c3n2)cc1OC [Example 15]				IC50 [1, 4]: 400 nM; IC50 [2]: 3300 nM
COc1ccc(-c2ccc3nc(N)nc(NC4CCCN(C(=O)Nc5cccc(C)c5)C4)c3n2)cc1OC (stereo not shown) [Example 264, 2-amino-4-[(3-methylphenylcarbamoylpiperidin-3-yl)amino)-6-(3,4-dimethoxyphenyl]-pyrido[3,2-d]pyrimidine]	500	1800		
COc1ccc(-c2ccc3ncnc(N4CCN(c5ccc(C)cc5)CC4)c3n2)cc1OC [Example 105, 4-(4-methyl-phenyl-piperazin-1-yl)-6-(3,4-dimethoxy-phenyl)-pyrido[3,2-d]pyrimidine]				IC50 [1, 4]: 800 nM; IC50 [2]: 90 nM
Nc1nc(N2CCOCC2)c2nc(-c3ccc(F)c(F)c3)ccc2n1 [Example 243, 2-amino-4-morpholino-6-(3,4-difluorophenyl)-pyrido[3,2-d]pyrimidine]	2300	6000		
Nc1nc(N2CCN(CC(=O)Nc3nccs3)CC2)c2nc(-c3ccc4c(c3)OCO4)ccc2n1 [Example 191]	400	3500		
COc1ccc(-c2ccc3nc(N)nc(N4CCN(CC(=O)N5CCCC5)CC4)c3n2)cc1OC [Example 273, 2-amino-4-(N-pyrrolidinyl-acetamid-2-yl-piperazin-1-yl)-6-(3,4-dimethoxyphenyl)pyrido[3,2-d]pyrimidine]		80		
COc1ccc(-c2ccc3nc(N)nc(NCC(=O)N4CCN(C)CC4)c3n2)cc1OC [Example 276, 2-amino-4-[2-amino-1-(4-methyl-piperazin-1-yl)-ethanone]-6-(3,4-dimethoxyphenyl)-pyrido[3,2-d]pyrimidine]		600		
COc1ccc(-c2ccc3nc(N)nc(NCCC(=O)N4CCN(C(C)=O)CC4)c3n2)cc1OC [Example 272, 2-amino-4-[3-(4-acetylpiperazin-1-yl)-propan-3-one-1-yl-amino]-6-(3,4-dimethoxyphenyl)-pyrido[3,2-d]pyrimidine]		700		
COc1ccc(-c2ccc3nc(N)nc(N4CCN(CC(=O)Nc5ccccn5)CC4)c3n2)cc1OC [Example 274, 2-amino-4-(N-pyridinylacetamid-2-yl-piperazin-1-yl)-6-(3,4-dimethoxyphenyl)-pyrido[3,2-d]pyrimidine]		80		
COc1ccc(-c2ccc3nc(N)nc(N4CCN(CC(=O)N5CCOCC5)CC4)c3c2)cc1OC [Example 275, 2-amino-4-[N-(piperazino)-acetyl-morpholino]-6-(3,4-dimethoxyphenyl)-pyrido[3,2-d]pyrimidine]		97		
CC(Oc1ccccc1)C(=O)N1CCN(c2nc(N)nc3ccc(-c4ccc(F)cc4)nc23)CC1 (stereo not shown) [Example 474, 2-amino-4-[4-(2-phenoxypropionyl)piperazin-1-yl]-6-(4-fluorophenyl)-pyrido[3,2-d]pyrimidine]			1000	
COc1ccccc1-c1ccc2nc(N)nc(N3CCN(C(=O)COc4ccc(Cl)cc4)CC3)c2n1 [Example 422, 2-amino-4-[4-(4-chlorophenoxyacetyl)piperazin-1-yl]-6-(2-methoxyphenyl)pyrido-[3,2-d]pyrimidine]			100	

Compound	IC50 [1, 3] [nM]	IC50 ([2]; Homo sapiens, PBMC) [nM]	IC50 [1, 5] [nM]	other results
COc1ccc(Cl)c(Nc2nc(N)nc3ccc(-c4ccc(OC)c(OC)c4)nc23)c1 [Example 30, 2-amino-4-(2-chloro-5-methoxy-anilino)-6-(3,4-dimethoxyphenyl)pyrido[3,2-d]pyrimidine]	10000			
Nc1nc(N2CCOCC2)c2nc(-c3ccc(F)c(Cl)c3)ccc2n1 [Example 242, 2-amino-4-morpholino-6-(3-chloro-4-fluorophenyl)-pyrido[3,2-d]pyrimidine]	2600			
Nc1nc(N2CCN(C(=O)COc3ccc(Cl)cc3)CC2)c2nc(-c3ccc(Cl)cc3)ccc2n1 [Example 405, 2-amino-4-[4-(4-chlorophenoxyacetyl)piperazin-1-yl]-6-(4-chlorophenyl)pyrido-[3,2-d]pyrimidine]			50	
Cc1cccc(NC(=O)N2CCN(c3ncnc4ccc(-c5ccc(F)cc5F)nc34)CC2)c1 [Example 556, 4-[(3-methylphenylcarbamoyl)-piperazin-1-yl]-6-(2,4-difluorophenyl)pyrido[3,2-d]pyrimidine]			100	
CC(Cl)C(=O)N1CCN(c2nc(N)nc3ccc(-c4ccc(F)cc4)nc23)CC1 (stereo not shown) [Example 468, 2-amino-4-[4-(2-chloropropionyl)piperazin-1-yl]-6-(4-fluorophenyl)-pyrido[3,2-d]pyrimidine]			3200	
COc1cc(-c2ccc3nc(N)nc(N)c3n2)ccc1O [Example 93, 2,4-diamino-6-(4-hydroxy-3-methoxyphenyl)-pyrido[3,2-d]pyrimidine]	5100			
COc1cccc(-c2ccc3nc(N)nc(N4CCOCC4)c3n2)n1 [Example 236, 2-amino-4-morpholino-6-(6-methoxy-2-pyridinyl)-pyrido[3,2-d]pyrimidine]	5300			
CC(C)C(C(=O)N1CCN(c2nc(N)nc3ccc(-c4ccc(F)cc4)nc23)CC1)c1ccc(Cl)cc1 (stereo not shown) [Example 467, 2-amino-4-{4-[2-(4-chlorophenyl)-3-methylbutyryl]-piperazin-1-yl}-6-(4-fluorophenyl)-pyrido[3,2-d]pyrimidine]			4700	
COc1ccc(-c2ccc3nc(N)nc(N4CCN(CC(=O)NCCc5ccccc5)CC4)c3n2)cc1OC [Example 270, 2-amino-4-[4-(N-2-phenylethylacetamid-2-yl)piperazin-1-yl]-6-(3,4-dimethoxyphenyl)-pyrido[3,2-d]pyrimidine]		300		
COCCNCc1nc(N2CCN(C(=O)Nc3cccc(C)c3)CC2)c2nc(-c3ccc(F)cc3)ccc2n1 [Example 538, 2-(N-methoxyethylamino)methyl-4-[N-(3-methylphenylcarbamoyl)piperazin-1-yl]-6-(4-fluorophenyl)-pyrido[3,2-d]pyrimidine]			340	
Cc1cc(-c2ccc3nc(N)nc(N4CCN(C(=O)COc5ccc(Cl)cc5)CC4)c3n2)ccc1F [Example 420, 2-amino-4-[4-(4-chlorophenoxyacetyl)piperazin-1-yl]-6-(4-fluoro-3-methylphenyl)-pyrido-[3,2-d]pyrimidine]			300	
N#CCc1ccc(-c2ccc3nc(N)nc(N4CCN(C(=O)COc5ccc(Cl)cc5)CC4)c3n2)cc1 [Example 499, 2-amino-4-[N-(4-chlorophenoxyacetyl)-piperazin-1-yl]-6-(4-cyanomethyl-phenyl)-pyrido(3,2-d)pyrimidine]			11	
Nc1nc(N2CCN(C(=O)COc3ccc(Cl)cc3)CC2)c2nc(-c3c(Cl)cccc3Cl)ccc2n1 [Example 438, 2-amino-4-[4-(4-chlorophenoxyacetyl)piperazin-1-yl]-6-(2,6-dichlorophenyl)-pyrido-[3,2-d]pyrimidine]			700	
Nc1nc(N2CCN(C(=O)COc3ccc(Cl)cc3)CC2)c2nc(-c3ccc(C(=O)NC4CC4)cc3)ccc2n1 [Example 448, 2-amino-4-[4-(4-chlorophenoxyacetyl)piperazin-1-yl]-6-[4-(cyclopropylaminocarbonyl)phenyl]-pyrido-[3,2-d]pyrimidine]			15	
Nc1nc(N2CCOCC2)c2nc(-c3ccc(F)cc3)ccc2n1 [Example 245, 2-amino-4-morpholino-6-(4-fluorophenyl)-pyrido[3,2-d]pyrimidine]	2300			
Nc1nc(N2CCN(c3ccc(F)cc3)CC2)c2nc(-c3ccc(F)cc3)ccc2n1 [Example 204, 2-amino-4-[N-(4-fluoro-phenyl)-piperazin-1-yl]-6-(4-fluorophenyl)-pyrido[3,2-d]pyrimidine]	6400			
